Measured values: US6376510B1, “Neuromuscular relaxants” (Newlaxant LLC, priority 1997, dated 2002)
Like-named read-outs stand apart in the source and are kept apart here.

Tests used:
[1] = system: anesthetized juvenile pigs; assay: animal or person; format: in vivo; conditions: pig; for ED50: intravenous dose causing 50% neuromuscular block; for RI (recovery index): spontaneous recovery, 25-75% neuromuscular response; for Onset: time to 80-85% neuromuscular block
How it was run: (§1)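 Electromyographic and mechanomyographic responses quantified. Monkeys sedated with intramuscular ketamine, then general anesthesia with intravenous pentobarbital and propofol; juvenile pigs induced with inhaled halothane.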

[2] = system: anesthetized cats (evoked responses of anterior tibial muscle); assay: animal or person; conditions: for RI (recovery index): spontaneous recovery, 25-75% neuromuscular response; for Onset: time to 80-85% neuromuscular block
How it was run: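 Adult cats anesthetized i.p. with 70 mg/kg alpha chloralose plus 0.5 g/kg ethylurethane; agents in saline given i.v. Anterior tibial muscle responses to supramaximal single or train-of-four stimuli of sciatic or peroneal nerve recorded electromyographically and mechanomyographically, alongside blood pressure and heart rate.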

[3] = system: anesthetized rats (evoked responses of anterior tibial muscle); assay: In vivo neuromuscular block and cardiovascular side effects, anesthetized rat (Example 8, Table 3); conditions: for RI (recovery index): spontaneous recovery, 25-75% neuromuscular response; for Onset: time to 80-85% neuromuscular block
How it was run: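 Pentobarbital-anesthetized (i.p.), ventilated adult male rats given saline-dissolved agents i.v.; anterior tibial EMG responses to supramaximal single or train-of-four sciatic/peroneal stimuli, plus 0.1 or 1 Hz stimulation. Doses for 50%, 80%, 90% block derived. Onset: minutes to 80-85% block; RI: 25-75% spontaneous recovery; vagal block, heart rate and blood pressure changes (%) at 80-85% blocking dose.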

dogs = assay: animal or person; format: in vivo; conditions: dog; for ED50: intravenous dose causing 50% neuromuscular block; for RI (recovery index): spontaneous recovery, 25-75% neuromuscular response; for Onset: time to 80-85% neuromuscular block
rabbits = assay: In vivo neuromuscular block and cardiovascular side effects, rabbit (Example 8, Table 7); conditions: for ED50: intravenous dose causing 50% neuromuscular block; for RI (recovery index): spontaneous recovery, 25-75% neuromuscular response; for Onset: time to 80-85% neuromuscular block
anesthetized monkeys = assay: In vivo neuromuscular block and cardiovascular side effects, monkey (Example 8, Table 6); conditions: for ED50: intravenous dose causing 50% neuromuscular block; for RI (recovery index): spontaneous recovery, 25-75% neuromuscular response; for Onset: time to 80-85% neuromuscular block
How it was run: as §1

[4] = at 80-85% neuromuscular blocking dose
[5] = cat, at 80-85% neuromuscular blocking dose
[6] = rat, at 80-85% neuromuscular blocking dose
[7] = Canis lupus familiaris, read-out: ED50
[8] = Oryctolagus cuniculus, read-out: ED50
[9] = cat, intravenous dose causing 50% neuromuscular block
[10] = rat, intravenous dose causing 50% neuromuscular block

CC(=O)Oc1ccc(C[N+]2(C)[C@@H]3CC[C@H]2C[C@@H](OC(=O)C2CCCC(C(=O)O[C@H]4C[C@H]5CC[C@@H](C4)[N+]5(C)Cc4ccc(OC(C)=O)c(OC(C)=O)c4)C2)C3)cc1OC(C)=O.[Br-].[Br-] (stereo partly drawn) [bis[N-(3,4-diacetoxybenzyl)tropanium-3α-yl]cyclohexane-1,3-dicarboxylate dibromide]
ED50 ([1]; Sus scrofa, read-out: ED50): 0.225 mg/kg | VB (vagal block) [1, 4]: 54% | ΔBP (change in arterial blood pressure) [1, 4]: 0% | ΔH (change in heart rate) [1, 4]: 0% | RI (recovery index) [1]: 0.85 min | Onset [1]: 0.8 min | ED50 ([2]; Felis catus, iv): 0.11 mg/kg | VB (vagal block) [2, 5]: 34% | ΔBP (change in arterial blood pressure) [2, 5]: −25% | ΔH (change in heart rate) [2, 5]: −12% | RI (recovery index) ([2]; cat): 0.5 min | Onset ([2]; cat): 0.8 min | ED50 ([3]; Rattus norvegicus, iv): 0.24 mg/kg | VB (vagal block) [3, 6]: 28% | ΔBP (change in arterial blood pressure) [3, 6]: 0% | ΔH (change in heart rate) [3, 6]: 0% | RI (recovery index) ([3]; rat): 0.5 min | Onset ([3]; rat): 0.65 min | ED50 (dogs; [7]): 0.128 mg/kg | ΔBP (change in arterial blood pressure) (dogs; [4]): −5% | ΔH (change in heart rate) (dogs; [4]): 30% | RI (recovery index) (dogs): 0.55 min | Onset (dogs): 0.75 min | ED50 (rabbits; [8]): 0.1 mg/kg | ΔBP (change in arterial blood pressure) (rabbits; [4]): 0% | ΔH (change in heart rate) (rabbits; [4]): 0% | RI (recovery index) (rabbits): 0.7 min | Onset (rabbits): 0.9 min | ED50 (anesthetized monkeys; Primates, read-out: ED50): 0.075 mg/kg | ΔBP (change in arterial blood pressure) (anesthetized monkeys; [4]): 0% | ΔH (change in heart rate) (anesthetized monkeys; [4]): 0% | RI (recovery index) (anesthetized monkeys): 0.65 min | Onset (anesthetized monkeys): 0.95 min

CC(=O)Oc1ccc(C[N+]2(C)C3CCCC2CC(OC(=O)C2CCC2C(=O)OC2CC4CCCC(C2)[N+]4(C)Cc2ccc(OC(C)=O)c(OC(C)=O)c2)C3)cc1OC(C)=O.[Br-].[Br-] (centres unmarked) [bis[N-(3,4-diacetoxybenzyl)granataninium-3-yl]cyclobutane-1,2-dicarboxylate dibromide]
VB (vagal block) ([1]; in vivo): 15% | ΔBP (change in arterial blood pressure) ([1]; in vivo): 0% | ΔH (change in heart rate) ([1]; in vivo): 0% | ED50 [1]: 0.1 mg/kg | RI (recovery index) [1]: 1 min | Onset [1]: 0.8 min | ED50 [2, 9]: 0.4 mg/kg | RI (recovery index) ([2]; cat): 0.5 min | Onset ([2]; cat): 0.6 min | ΔBP (change in arterial blood pressure) ([2]; in vivo): 0% | ΔH (change in heart rate) ([2]; in vivo): 0% | VB (vagal block) ([3]; rat, in vivo): 2% | ΔBP (change in arterial blood pressure) ([3]; rat, in vivo): 0% | ΔH (change in heart rate) ([3]; rat, in vivo): 0% | ED50 [3, 10]: 0.133 mg/kg | RI (recovery index) ([3]; rat): 0.4 min | Onset ([3]; rat): 0.5 min | ΔBP (change in arterial blood pressure) (dogs; in vivo): −5% | ΔH (change in heart rate) (dogs; in vivo): 27% | ED50 (dogs): 0.15 mg/kg | RI (recovery index) (dogs): 0.7 min | Onset (dogs): 0.75 min | ΔBP (change in arterial blood pressure) (rabbits; in vivo): 0% | ΔH (change in heart rate) (rabbits; in vivo): 0% | ED50 (rabbits): 0.115 mg/kg | RI (recovery index) (rabbits): 0.6 min | Onset (rabbits): 0.6 min | ΔBP (change in arterial blood pressure) (anesthetized monkeys; in vivo): 0% | ΔH (change in heart rate) (anesthetized monkeys; in vivo): 0% | ED50 (anesthetized monkeys): 0.086 mg/kg | RI (recovery index) (anesthetized monkeys): 0.4 min | Onset (anesthetized monkeys): 0.7 min

CC(=O)Oc1ccc(C[N+]2(C)C3CCCC2CC(OC(=O)CCCC(=O)OC2CC4CCCC(C2)[N+]4(C)Cc2ccc(OC(C)=O)c(OC(C)=O)c2)C3)cc1OC(C)=O.[Br-].[Br-] (centres unmarked) [bis[N-(3,4-diacetoxybenzyl)granataninium-3-yl]glutarate dibromide]
VB (vagal block) ([1]; in vivo): 40% | ΔBP (change in arterial blood pressure) ([1]; in vivo): 0% | ΔH (change in heart rate) ([1]; in vivo): 0% | ED50 [1]: 0.235 mg/kg | RI (recovery index) [1]: 0.9 min | Onset [1]: 0.8 min | ED50 [2, 9]: 0.7 mg/kg | RI (recovery index) ([2]; cat): 0.4 min | Onset ([2]; cat): 0.7 min | VB (vagal block) ([2]; in vivo): 60% | ΔBP (change in arterial blood pressure) ([2]; in vivo): −50% | ΔH (change in heart rate) ([2]; in vivo): 0% | VB (vagal block) ([3]; rat, in vivo): 0% | ΔBP (change in arterial blood pressure) ([3]; rat, in vivo): 0% | ΔH (change in heart rate) ([3]; rat, in vivo): 0% | ED50 [3, 10]: 0.17 mg/kg | RI (recovery index) ([3]; rat): 0.45 min | Onset ([3]; rat): 0.6 min | ΔBP (change in arterial blood pressure) (dogs; in vivo): −18% | ΔH (change in heart rate) (dogs; in vivo): 50% | ED50 (dogs): 0.225 mg/kg | RI (recovery index) (dogs): 0.6 min | Onset (dogs): 0.65 min | ΔBP (change in arterial blood pressure) (rabbits; in vivo): 0% | ΔH (change in heart rate) (rabbits; in vivo): 0% | ED50 (rabbits): 0.165 mg/kg | RI (recovery index) (rabbits): 0.55 min | Onset (rabbits): 0.65 min | ΔBP (change in arterial blood pressure) (anesthetized monkeys; in vivo): 0% | ΔH (change in heart rate) (anesthetized monkeys; in vivo): 0% | ED50 (anesthetized monkeys): 0.075 mg/kg | RI (recovery index) (anesthetized monkeys): 0.4 min | Onset (anesthetized monkeys): 0.7 min

CC(=O)Oc1ccc(C[N+]2(C)[C@@H]3CC[C@H]2C[C@@H](OC(=O)C2CCC2C(=O)O[C@H]2C[C@H]4CC[C@@H](C2)[N+]4(C)Cc2ccc(OC(C)=O)c(OC(C)=O)c2)C3)cc1OC(C)=O.[Br-].[Br-] (stereo partly drawn) [bis[N-(3,4-diacetoxybenzyl)tropanium-3α-yl]cyclobutane-1,2-dicarboxylate dibromide]
ED50 ([1]; Sus scrofa, read-out: ED50): 0.275 mg/kg | VB (vagal block) [1, 4]: 42% | ΔBP (change in arterial blood pressure) [1, 4]: 0% | ΔH (change in heart rate) [1, 4]: 0% | RI (recovery index) [1]: 0.85 min | Onset [1]: 0.68 min | ED50 ([2]; Felis catus, iv): 0.135 mg/kg | VB (vagal block) [2, 5]: 12% | ΔBP (change in arterial blood pressure) [2, 5]: 0% | ΔH (change in heart rate) [2, 5]: 0% | RI (recovery index) ([2]; cat): 0.5 min | Onset ([2]; cat): 0.95 min | ED50 ([3]; Rattus norvegicus, iv): 0.218 mg/kg | VB (vagal block) [3, 6]: 5% | ΔBP (change in arterial blood pressure) [3, 6]: 0% | ΔH (change in heart rate) [3, 6]: 0% | RI (recovery index) ([3]; rat): 0.45 min | Onset ([3]; rat): 0.7 min | ED50 (dogs; [7]): 0.1 mg/kg | ΔBP (change in arterial blood pressure) (dogs; [4]): −7% | ΔH (change in heart rate) (dogs; [4]): 10% | RI (recovery index) (dogs): 0.65 min | Onset (dogs): 0.9 min | ED50 (rabbits; [8]): 0.078 mg/kg | ΔBP (change in arterial blood pressure) (rabbits; [4]): 0% | ΔH (change in heart rate) (rabbits; [4]): 0% | RI (recovery index) (rabbits): 0.6 min | Onset (rabbits): 0.8 min | ED50 (anesthetized monkeys; Primates, read-out: ED50): 0.054 mg/kg | ΔBP (change in arterial blood pressure) (anesthetized monkeys; [4]): 0% | ΔH (change in heart rate) (anesthetized monkeys; [4]): 0% | RI (recovery index) (anesthetized monkeys): 0.4 min | Onset (anesthetized monkeys): 0.95 min

COc1cc(C[N+]2(C)[C@@H]3CC[C@H]2C[C@@H](OC(=O)C2CCCC(C(=O)O[C@H]4C[C@H]5CC[C@@H](C4)[N+]5(C)Cc4ccc(OC(C)=O)c(OC)c4)C2)C3)ccc1OC(C)=O.[Br-].[Br-] (stereo partly drawn) [bis[N-(4-acetoxy-3-methoxybenzyl)tropanium-3α-yl]cyclohexane-1,3-dicarboxylate dibromide]
ED50 ([1]; Sus scrofa, read-out: ED50): 0.183 mg/kg | VB (vagal block) [1, 4]: 65% | ΔBP (change in arterial blood pressure) [1, 4]: 0% | ΔH (change in heart rate) [1, 4]: 0% | RI (recovery index) [1]: 0.75 min | Onset [1]: 0.6 min | ED50 ([2]; Felis catus, iv): 0.325 mg/kg | VB (vagal block) [2, 5]: 33% | ΔBP (change in arterial blood pressure) [2, 5]: −5% | ΔH (change in heart rate) [2, 5]: 0% | RI (recovery index) ([2]; cat): 0.5 min | Onset ([2]; cat): 0.9 min | ED50 ([3]; Rattus norvegicus, iv): 0.27 mg/kg | VB (vagal block) [3, 6]: 30% | ΔBP (change in arterial blood pressure) [3, 6]: 0% | ΔH (change in heart rate) [3, 6]: 0% | RI (recovery index) ([3]; rat): 0.45 min | Onset ([3]; rat): 0.55 min | ED50 (dogs; [7]): 0.28 mg/kg | ΔBP (change in arterial blood pressure) (dogs; [4]): −25% | ΔH (change in heart rate) (dogs; [4]): 38% | RI (recovery index) (dogs): 0.5 min | Onset (dogs): 0.75 min | ED50 (rabbits; [8]): 0.165 mg/kg | ΔBP (change in arterial blood pressure) (rabbits; [4]): 0% | ΔH (change in heart rate) (rabbits; [4]): 0% | RI (recovery index) (rabbits): 0.65 min | Onset (rabbits): 0.65 min | ED50 (anesthetized monkeys; Primates, read-out: ED50): 0.1 mg/kg | ΔBP (change in arterial blood pressure) (anesthetized monkeys; [4]): 0% | ΔH (change in heart rate) (anesthetized monkeys; [4]): 0% | RI (recovery index) (anesthetized monkeys): 0.5 min | Onset (anesthetized monkeys): 0.9 min
